In ChEMBL document CHEMBL1131511, “Potent HIV protease inhibitors incorporating high-affinity P2-ligands and (R)-(hydroxyethylamino)sulfonamide isostere” (Bioorg Med Chem Lett, 1998):
pIC50, pKi: −log10 of the molar value.

Tests used:
MT4 = test: Compound was tested for the inhibition of HIV-1 in MT-4 human T-lymphoid cells infected with IIIB isolate; type: functional; conditions: read-out: ID50 (the source's name)
[1] = biological target: Human immunodeficiency virus type 1 protease (Human immunodeficiency virus 1, UniProt Q72874); test: Inhibitory activity against HIV-1 protease

| Compound | pIC50 (MT4) | pKi [1] |
| --- | --- | --- |
| CC(C)CN(C[C@@H](O)[C@H](Cc1ccccc1)NC(=O)O[C@H]1CCOC1)S(=O)(=O)c1ccc(N)cc1 | 7.82 | 8.80 |
| CC(C)CN(C[C@@H](O)[C@H](Cc1ccccc1)NC(=O)O[C@H]1CO[C@H]2OCC[C@H]21)S(=O)(=O)c1ccc(N)cc1 | 8.35 | – |
| Cc1ccc(S(=O)(=O)N(CC(C)C)C[C@@H](O)[C@H](Cc2ccccc2)NC(=O)O[C@H]2CO[C@H]3OCC[C@H]32)cc1 | 8.46 | 8.92 |
| COc1ccc(S(=O)(=O)N(CC(C)C)C[C@@H](O)[C@H](Cc2ccccc2)NC(=O)O[C@H]2CCOC2)cc1 | 7.92 | 8.82 |
| COc1ccc(S(=O)(=O)N(CC(C)C)C[C@@H](O)[C@H](Cc2ccccc2)NC(=O)O[C@H]2CCS(=O)(=O)C2)cc1 | 7.72 | 8.92 |
| COc1ccc(S(=O)(=O)N(CC(C)C)C[C@@H](O)[C@H](Cc2ccccc2)NC(=O)O[C@H]2CCSC2)cc1 | 7.33 | 8.60 |
| COc1ccc(S(=O)(=O)N(CC(C)C)C[C@@H](O)[C@H](Cc2ccccc2)NC(=O)O[C@@H]2CCS(=O)(=O)[C@@H]2C(C)C)cc1 | 7.74 | 8.85 |
| CC(C)CN(C[C@@H](O)[C@H](Cc1ccccc1)NC(=O)O[C@@H]1CCS(=O)(=O)[C@@H]1C(C)C)S(=O)(=O)c1ccc(N)cc1 | 7.40 | 8.82 |
| COc1ccc(S(=O)(=O)N(CC(C)C)C[C@@H](O)[C@H](Cc2ccccc2)NC(=O)O[C@@H]2CO[C@@H]3OCCC[C@@H]32)cc1 | 8.35 | 8.66 |
| COc1ccc(S(=O)(=O)N(CC(C)C)C[C@@H](O)[C@H](Cc2ccccc2)NC(=O)O[C@H]2CO[C@H]3OCC[C@H]32)cc1 | 8.85 | 8.96 |
